Results published in publication PMC8162404, “Proteomimetic surface fragments distinguish targets by function” (Chemical Science, 2020).

Tests used:
RecQ-WH = molecular target: T1, RecQ-WH (Escherichia coli, UniProt P15043); experiment: Pull-down assay with immobilized protein and LSM libraries; design: species or system E. coli; details: H14 library; 1:1 binding assumed; read-out: Surface mapping KD (apparent)
T1 construct: coding for residues 408– 523 of E. coli RecQ; made in house; host or cells: E. coli BL21(DE3)
Method: Pull-down assays with immobilized test proteins and foldameric LSM libraries were carried out. Proteins were equilibrated with LSM probes, and equilibrium bound fractions (FB) were determined from the unbound fractions measured by HPLC-MS methods. Hits were corrected with background binding of the resin. The protocol allowed all binding events to equilibrate irrespective of affinity, specificity, and binding kinetics. This was essential to judge overall druggability and promiscuity. Importantly, the concentration of protein and the total concentration of foldameric LSMs were equimolar, which minimized competition between the probes. This experimental setup approximated independent binding of individual library members. Results were visualized as heat maps of dissociation constants (Fig. 3).
Pull-down assay and data analysis
Pull-down assay. LSM sublibraries were screened separately as previously described.(2) Experiments were performed in the following buffers: (i) 20 mM pH 7.4 HEPES, 150 mM NaCl, 5 mM CaCl2 for CaM; (ii) 50 mM pH 7.4 HEPES, 150 mM NaCl, 1 mM TCEP, 1 mM CaCl2 for S100 proteins; (iii) 20 mM pH 7.4 HEPES, 150 mM NaCl, 1 mM TCEP for Gal-1 and (iv) 20 mM pH 7.4 HEPES, 150 mM NaCl for RecQ-WH. Assays were performed in paper filter spin cups (Thermo Scientific) with sample volumes of 100 µl. Hexahistidine-tagged proteins were immobilized on previously washed Co-NTA resin (TALON, Takara Bio USA, Inc., Mountain View, CA) in 64 µM final concentration. LSM sublibrary was added, in which each of the 64 library members were used at a concentration of 1 µM. Samples were incubated at room temperature for 30 min with shaking at 100 rpm. Then, samples were centrifuged at 1000 rpm for 2 min and washed with 100 µl pull-down buffer to remove unbound compounds.
The control experiments were performed using the same compounds and the resin but without the immobilized protein. In case of competitive assays, competitor peptides were added to LSM sublibrary samples in 200 µM final concentration. In the case of Gal-1, lactose (competitor) was used in a concentration of 10 mM. Experiments were performed at least twice. Mean […]
LC-MS methods and parameters. HPLC/ESI-MS analysis was used to characterize the samples from the pull-down assay. LC-MS analysis was performed with a Thermo Scientific Dionex UltiMate 3000 HPLC system interfaced to an LTQ ion trap mass spectrometer (Thermo Electron Corp., San Jose, CA, USA). Samples were injected onto an Aeris Widepore XB-C18 (250 x 4.6 mm) analytical HPLC column using gradient elution 5-80 % solution B during 25 minutes. For pull-down samples, eluent composition was 0.1% acetic acid in distilled water (Solution A) and 0.1% acetic acid in acetonitrile (solution B). Mass spectra were acquired in full scan mode from 200 to 2000 m/z range. For overlapping peaks, selective reaction monitoring (SRM) was […]
MS data analysis. Thermo Xcalibur 2.2 software was used for peak identification and integration. The majority of the foldameric fragments could be resolved independently via HPLC-MS/MS measurements based on molecular weight, MS fragmentation pattern and retention time. Peaks of some foldamers with β3-hIle or β3-hLeu in position R2 could not be resolved, these were integrated and averaged. In the processing method, each sample component was associated to a chromatographic peak based on previously identified mass (m/z) and retention time (ref (2) and Table S7-10). Using ICIS peak detection algorithm, the general detection and integration criteria were: smoothing points: 5, baseline window: 80, area noise factor: 5, peak noise factor: 10. Using these processing setups, all raw data files were reprocessed together and analyzed. Errors in peak identification during the automatic processing were corrected manually.
Calculation of the discussed parameters
1. Bound fractions (FB.) were calculated from the HPLC-MS intensity loss of the LSM probes compared to the control where no protein was immobilized to the resin: […]

Gal-1 [1] = molecular target: T2, Gal-1 (Homo sapiens, UniProt P09382); experiment: Competition pull-down with lactose; format: binding; details: H14 library; lactose 10 mM; read-out: Surface mapping KD (apparent), competition
T2 construct: made in house; host or cells: E. coli BL21(DE3)
How it was run: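 His6-tagged proteins immobilized on Co-NTA resin at 64 µM final with 64-member LSM foldamer sublibraries (1 M each, as printed) in pH 7.4 HEPES/NaCl buffers (Ca2+/TCEP per target), 30 min RT; competitor peptides 200 µM final, lactose 10 mM for Gal-1. Bound fractions from LC-MS loss vs protein-free resin; KD assuming 1:1 binding.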

S100B = molecular target: T3, S100B (Homo sapiens, UniProt P04271); experiment: Pull-down assay with immobilized protein and LSM libraries; format: binding; details: for Kd: H14 library, 1:1 binding assumed, read-out: Surface mapping KD (apparent); for Affinity class of probe (high, medium, low) in pull-down: H14 probes selected for validation
T3 construct: made in house; host or cells: Escherichia coli BL21(DE3)
T3 sequence (P04271 1-92): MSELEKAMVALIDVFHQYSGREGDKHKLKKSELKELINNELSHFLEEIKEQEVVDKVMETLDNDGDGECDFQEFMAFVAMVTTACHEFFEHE
How it was run: (§1)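 Buffers were HEPES pH 7.4 with 150 mM NaCl, plus 1 mM TCEP and 1 mM CaCl2 (50 mM HEPES) for S100A4 and S100B, 1 mM TCEP for Gal-1, and no additive for RecQ-WH. Immobilized protein at 64 µM was equilibrated 30 min with the LSM sublibrary, and unbound probes were measured by LC-MS.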

CaM [2] = molecular target: T4, CaM (Bos taurus, UniProt P62157); experiment: Competition pull-down with native ligand TRPV1-Ct15; format: binding, bovine; details: H14 library; competitor peptide 200 µM; read-out: Surface mapping KD (apparent), competition
T4 construct: made in house; host or cells: E. coli BL21 (DE3)

CaM [3] = molecular target: T4, CaM; experiment: Pull-down assay with immobilized protein and LSM libraries; format: binding, bovine; details: H14 library; 1:2 stoichiometry assumed; read-out: Surface mapping KD (apparent)
How it was run: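 His-tagged protein immobilized on Co-NTA resin, equilibrated 30 min at room temperature with LSM sublibraries (64 members, […]), equimolar protein to total probe. CaM buffer: 20 mM HEPES pH 7.4, 150 mM NaCl, 5 mM CaCl2. Bound fractions from HPLC-MS loss of unbound probe versus protein-free resin control; Kd derived.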

S100A4 = molecular target: T5, S100A4 (Homo sapiens, UniProt P26447); experiment: as above; format: binding; details: for Kd: H14 library, 1:1 binding assumed, read-out: Surface mapping KD (apparent); for Affinity class of probe (high, medium, low) in pull-down: H14 probes selected for validation
T5 construct: made in house; host or cells: Escherichia coli BL21(DE3)
How it was run: as §1

Gal-1 [4] = molecular target: T2, Gal-1; experiment: as above; format: binding; details: H14 library; 1:1 binding assumed; read-out: Surface mapping KD (apparent)
How it was run: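 His-tagged protein immobilized on Co-NTA resin (64 µM) in 20 mM HEPES pH 7.4, 150 mM NaCl, equilibrated 30 min at room temperature with foldamer LSM sublibraries at equimolar total concentration. Unbound fractions quantified by HPLC-MS versus protein-free resin control; apparent KD assumes 1:1 binding.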

T1 sequence (P15043 408-523): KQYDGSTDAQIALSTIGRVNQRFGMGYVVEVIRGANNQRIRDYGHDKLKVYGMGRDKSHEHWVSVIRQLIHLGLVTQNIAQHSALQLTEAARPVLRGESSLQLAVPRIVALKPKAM
T5 sequence (P26447 whole entry): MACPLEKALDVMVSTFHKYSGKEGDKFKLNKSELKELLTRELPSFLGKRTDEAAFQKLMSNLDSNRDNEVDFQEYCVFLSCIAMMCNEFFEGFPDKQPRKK
T2 sequence (P09382 whole entry): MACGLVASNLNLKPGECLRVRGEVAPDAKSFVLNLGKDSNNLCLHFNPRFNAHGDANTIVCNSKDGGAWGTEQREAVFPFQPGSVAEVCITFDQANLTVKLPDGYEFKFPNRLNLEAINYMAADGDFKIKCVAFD

SMILES	Kd (RecQ-WH) [µM]	Kd (Gal-1 [1]) [µM]	Kd (S100B) [µM]	Kd (CaM [2]) [µM]	Kd (CaM [3]) [µM]	Kd (S100A4) [µM]	Kd (Gal-1 [4]) [µM]	Affinity class of probe (high, medium, low) in pull-down (S100A4)	Affinity class of probe (high, medium, low) in pull-down (S100B)	Binding (S100A4; H14 probes)	Binding (S100B; H14 probes)
CC[C@H](C)[C@@H](CC(=O)N[C@H]1CCCC[C@@H]1C(N)=O)NC(=O)[C@H]1CCCC[C@@H]1NC(=O)[C@H]1CCCC[C@@H]1NC(=O)C[C@H](CC(=O)O)NC(=O)[C@H]1CCCC[C@@H]1N [H14 DI]	429	408	–	–	–	–	–	–	–	–	–
NCCCC[C@@H](CC(=O)N[C@H]1CCCC[C@@H]1C(N)=O)NC(=O)[C@H]1CCCC[C@@H]1NC(=O)[C@H]1CCCC[C@@H]1NC(=O)C[C@H](CC(=O)O)NC(=O)[C@H]1CCCC[C@@H]1N [H14 DK]	314	405	144	–	–	–	–	–	–	–	–
CC(C)C[C@@H](CC(=O)N[C@H]1CCCC[C@@H]1C(N)=O)NC(=O)[C@H]1CCCC[C@@H]1NC(=O)[C@H]1CCCC[C@@H]1NC(=O)C[C@H](CC(=O)O)NC(=O)[C@H]1CCCC[C@@H]1N [H14 DL]	429	408	–	–	–	–	–	–	–	–	–
NC(=O)[C@H]1CCCC[C@@H]1NC(=O)C[C@H](Cc1c[nH]c2ccccc12)NC(=O)[C@H]1CCCC[C@@H]1NC(=O)[C@H]1CCCC[C@@H]1NC(=O)C[C@H](CC(=O)O)NC(=O)[C@H]1CCCC[C@@H]1N [H14 DW]	165	–	200	439	–	–	–	–	–	–	–
NC(=O)[C@H]1CCCC[C@@H]1NC(=O)C[C@H](Cc1c[nH]c2ccccc12)NC(=O)[C@H]1CCCC[C@@H]1NC(=O)[C@H]1CCCC[C@@H]1NC(=O)C[C@H](CCC(=O)O)NC(=O)[C@H]1CCCC[C@@H]1N [H14 EW]	212	458	305	–	–	–	–	–	–	–	–
N=C(N)NCCC[C@@H](CC(=O)N[C@H]1CCCC[C@@H]1C(N)=O)NC(=O)[C@H]1CCCC[C@@H]1NC(=O)[C@H]1CCCC[C@@H]1NC(=O)C[C@H](CCCCN)NC(=O)[C@H]1CCCC[C@@H]1N [H14 KR]	486	323	22	249	22	–	–	–	–	–	–
CC(C)[C@@H](CC(=O)N[C@H]1CCCC[C@@H]1C(N)=O)NC(=O)[C@H]1CCCC[C@@H]1NC(=O)[C@H]1CCCC[C@@H]1NC(=O)C[C@H](CCCCN)NC(=O)[C@H]1CCCC[C@@H]1N [H14 KV]	442	–	102	376	50	71	–	–	–	–	–
CSCC[C@@H](CC(=O)N[C@H]1CCCC[C@@H]1C(=O)N[C@H]1CCCC[C@@H]1C(=O)N[C@@H](CCCNC(=N)N)CC(=O)N[C@H]1CCCC[C@@H]1C(N)=O)NC(=O)[C@H]1CCCC[C@@H]1N [H14 MR]	457	310	92	–	19	247	395	–	–	–	–
C[C@@H](CC(=O)N[C@H]1CCCC[C@@H]1C(N)=O)NC(=O)[C@H]1CCCC[C@@H]1NC(=O)[C@H]1CCCC[C@@H]1NC(=O)C[C@H](CCCNC(=N)N)NC(=O)[C@H]1CCCC[C@@H]1N [H14 RA]	456	–	188	449	111	–	–	–	–	–	–
N=C(N)NCCC[C@@H](CC(=O)N[C@H]1CCCC[C@@H]1C(=O)N[C@H]1CCCC[C@@H]1C(=O)N[C@H](CC(=O)N[C@H]1CCCC[C@@H]1C(N)=O)Cc1ccccc1)NC(=O)[C@H]1CCCC[C@@H]1N [H14 RF]	231	–	16	350	4	65	–	medium	high	–	–
CSCC[C@@H](CC(=O)N[C@H]1CCCC[C@@H]1C(N)=O)NC(=O)[C@H]1CCCC[C@@H]1NC(=O)[C@H]1CCCC[C@@H]1NC(=O)C[C@H](CCCNC(=N)N)NC(=O)[C@H]1CCCC[C@@H]1N [H14 RM]	294	–	79	–	30	94	–	–	–	–	–
N=C(N)NCCC[C@@H](CC(=O)N[C@H]1CCCC[C@@H]1C(N)=O)NC(=O)[C@H]1CCCC[C@@H]1NC(=O)[C@H]1CCCC[C@@H]1NC(=O)C[C@H](CCCNC(=N)N)NC(=O)[C@H]1CCCC[C@@H]1N [H14 RR]	355	–	18	103	10	–	–	low	high	does not	binds
N=C(N)NCCC[C@@H](CC(=O)N[C@H]1CCCC[C@@H]1C(=O)N[C@H]1CCCC[C@@H]1C(=O)N[C@H](CC(=O)N[C@H]1CCCC[C@@H]1C(N)=O)Cc1c[nH]c2ccccc12)NC(=O)[C@H]1CCCC[C@@H]1N [H14 RW]	201	–	13	–	0.6	56	–	–	–	–	–
NC(=O)[C@H]1CCCC[C@@H]1NC(=O)C[C@H](Cc1ccccc1)NC(=O)[C@H]1CCCC[C@@H]1NC(=O)[C@H]1CCCC[C@@H]1NC(=O)C[C@H](CO)NC(=O)[C@H]1CCCC[C@@H]1N [H14 SF]	182	312	105	–	30	71	267	–	–	–	–
NC(=O)CC[C@@H](CC(=O)N[C@H]1CCCC[C@@H]1C(N)=O)NC(=O)[C@H]1CCCC[C@@H]1NC(=O)[C@H]1CCCC[C@@H]1NC(=O)C[C@H](Cc1c[nH]c2ccccc12)NC(=O)[C@H]1CCCC[C@@H]1N [H14 WQ]	473	–	161	495	16	191	–	–	–	–	–
NCCCC[C@@H](CC(=O)N[C@H]1CCCC[C@@H]1C(N)=O)NC(=O)[C@H]1CCCC[C@@H]1NC(=O)[C@H]1CCCC[C@@H]1NC(=O)C[C@H](Cc1ccc(O)cc1)NC(=O)[C@H]1CCCC[C@@H]1N [H14 YK]	411	–	89	–	17	146	–	–	–	–	–
